Here are results for 7 molecules from US20070049538A1, “METHODS FOR USING CUCURBITACIN COMPOUNDS” (SOUTH DAKOTA STATE UNIVERSITY, priority 2005, published 2007).

A short description of series [1]: Chromatographic hydrophobicity index (CHI) by RP-HPLC in buffered methanol. The format is physicochemical. To be noted: for CHIMeOH: buffered methanol pH 7.0, Econosil C18 150 mm, Eq. (4). On the procedure: (§1) We used Dynamax liquid chromatograph (Varian Chromatography Systems) with PDA-2 photodiode array UV detector, controlled by the Dynamax PC Chromatography Data System (v. 1.9) software and Dynamax dual pump solvent delivery system, model SD-200. […] Cucurbitacins analytical separation was optimized on Alltima C18 (Alltech; 250 mm×4.6 mm, 5 μm) HPLC column, at gradient elution in acetonitrile (ACN, 30-70% ACN in 57 min), and in MeOH (60-75% MeOH in 50 min). Cucurbitacins stock concentration of 10^−2M in DMSO:ethanol (1:1) was standardized against pure cucurbitacin I (Indofine Chemical Company, Hillsborough, N.J.) by analytical HPLC means. Compounds CHI was measured in both ACN, by using Alltima C18 column, and in MeOH, by using Econosil C18 column (Alltech; 150 mm×4.6 mm, 5 μm). Analytical separations were conducted at a flow rate of 1 ml/min. The aqueous phase was buffered for the CHI measurement. For this purpose, solid ammonium acetate (Fisher Sci. Co., Fair Lawn, N.J.) was dissolved in deionized distilled water at 50 mM final concentration and its pH adjusted to 7.0.
A standard mixture of 10 compounds including 19-21, 23-27, aniline (compound 28) and bromobenzene (compound 29), dissolved in MeOH, was injected at five isochratic elution, at 40, 45, 50, 55, and 60% MeOH. Then the mixture was injected at fast gradient elution to establish the correlation from Eq. (1). The fast linear gradient elution was optimized for 30-100% MeOH in aqueous buffer with 10 min runtime.
(§2) Cucurbitacins lipophilicity was measured by RP-HPLC. […] Due to its high viscosity, aqueous MeOH required a shorter column than the one applied for ACN. First, the C18 columns were calibrated against a standard mixture, and the relationships established between the fast gradient tR and φ0 or published CHI (see Eqs. (2)-(4) from Table 2). Second, cucurbitacins were injected at fast gradient elution under similar conditions, and their CHI calculated (Table 4) from Eqs. (2)-(4). Eqs.

Series [2] in a line: Chromatographic hydrophobicity index (CHI) by RP-HPLC in buffered acetonitrile. The settings on record: for CHIACN1: buffered acetonitrile pH 7.0, Alltima C18 250 mm, Eq. (2) from isocratic φ0; for CHIACN2: buffered acetonitrile pH 7.0, Eq. (3) calibrated against published CHI. The format is physicochemical. Also noted: key: CHI = φ0 (isocratic hydrophobicity index), = A·tR + B; ACN % scale. On the procedure: as §1
All standard compounds were purchased from Acros (Acros Organics, NJ). The chromatographic lipophilicity or hydrophobicity was determined applying Valkó's technique (Valkó et al., Anal. Chem. 69 (1997) 2022, the entire disclosure of which is herein incorporated by reference). A standard mixture of seven compounds was prepared in solution: theophylline (compound 19), benzimidazole (compound 20), acetophenone (compound 21), indole (compound 22), propiophenone (compound 23), butyrophenone (compound 24), and valerophenone (compound 25). […] The retention factor, log k=log((tR-t0)/t0), was calculated for each analyte from five good injections of […] sample. The dead time (t0) was measured by injecting NaNO3 together with the sample. Then, the log k values were plotted against isocratic ACN concentrations to establish the linear regression equations for each analyte. From each straight line the isocratic hydrophobicity index was computed, φ0=(intercept/slope). Further, the calibration mixture was injected at fast gradient elution, 0-22 min 0-100% ACN, and three additional minutes at 100% ACN. The φ0 values for the test compounds were plotted against gradient retention time and the linear equation determined from the following equation: φ0=CHI=AtR+B (1)
The gradient elution conditions were similar to the one from the first approach.
as §2

Series [3] has as its system HSC-T6 cells. Briefly: Serum-driven HSC-T6 proliferation, experiment 3 (24 h, proliferating cells). Type of series: cell-based, rat. The settings on record: HSC-T6, 24 h, proliferating cells; read-out: Experiment 3 EC50 (A). On the procedure: To overcome this problem, the amount of incubation time was increased to 24 h, and cucurbitacin activity measured on starved (Exp. 2) or proliferative (Exp. 3) cells (Table 8). Cells turned quiescent when serum was not supplemented for one day (Exp. 2). Activity of a few compounds was monitored on quiescent cells, and their activity compared to the ones measured on proliferating cells (Exp. 3).
We established several experimental conditions such as 4 hours of incubation time with cucurbitacin, and 2 day cell incubation with fresh media after challenging with cucurbitacin (Exp. 1). Other experiments involved addition of cucurbitacin for 24 hours over starved cells (Exp. 2) vs. proliferating cells (Exp. 3), and one day incubation of cells with fresh media after challenge. The 4 hour incubation period with cucurbitacin triggered anti-proliferation effect. This effect, however, was hindered by a second cycle of cell proliferation during the two-day cell growth period (see silybin, E and I glucosides, and for I-nPr). […] Because of that, the challenge time was increased to 24 hours (Exp. 2 and 3).
In experiment 3, only 40% of the cells divided. The ratio of EC50 values for exp. 2 and exp. 3 varied between 3.6 and 12.7. This may indicate differential cytotoxicity of silybin and cucurbitacin analogs over quiescent and active stellate cells. In other words, compounds show higher anti-proliferative activity on active cells than on quiescent cells.

The test system of series [4] is HSC-T6 cells. Briefly: Serum-driven HSC-T6 proliferation, experiment 1 (4 h challenge, two days drug-free growth). Type of series: cell-based, rat. To be noted: for EC50: HSC-T6, 4 h challenge, then two days drug-free media. The procedure: The proliferation effect of serum on HSC-T6 cells was optimized and cucurbitacin antiproliferative activity was measured. Serum contains a large number of growth factors, hormones and other nutrients, which help cells to grow and multiply. Several trials were conducted. In experiment 1, cells were challenged with cucurbitacin analogs for 4 h and then cells were grown in drug-free media for two additional days.
HSC-T6 cells were photographed under phase-contrast microscope to record possible changes in cell morphology during experiment 1. […] We are monitoring specifically the effect of compound on the cells, cell recovery after 4 h challenge, and relative cell proliferation. […] Live cells are quantified at the end of the assay (row 4) with MTT dye.
We established several experimental conditions such as 4 hours of incubation time with cucurbitacin, and 2 day cell incubation with fresh media after challenging with cucurbitacin (Exp. 1). Other experiments involved addition of cucurbitacin for 24 hours over starved cells (Exp. 2) vs. proliferating cells (Exp. 3), and one day incubation of cells with fresh media after challenge. […] Because of that, the challenge time was increased to 24 hours (Exp. 2 and 3).
We modified this approach. Our assay included a second control (ZC) supplemented with no serum intended to measure cucurbitacin anti-proliferation effect relative to the number of cells generated during challenge instead of the total number of cells present in each well.

For series [5], the system named is HSC-T6 cells. Briefly: Cytotoxicity on HSC-T6 cells (experiment 3). Type of series: cell-based, rat. The settings on record: read-out: Experiment 3 IC50 (T). From the text: Cytotoxicity of all cucurbitacin analogs was additionally measured in experiment 3 (Table 8).
For series [6], the system named is HepG2 cells. Briefly: Cucurbitacins cytotoxicity on HepG2 cells (MTT viability assay). The format is cell-based, human. On the procedure:
HepG2 (human hepatocellular carcinoma, ATCC) cells were grown in EMEM (Gibco, Grand Island, N.Y.) supplemented with 10% fetal bovine serum (FBS), and 1% penicillin/fungizone mixture (Gibco). Thabrew's optimized procedure (Thabrew et al., J. Pharm. Pharmcol. 49 (1994) 1442, the entire disclosure of which is herein incorporated by reference) was followed. Cells were batch cultured for 10 days, then seeded at concentration of 30,000 cells/well in fresh media in 96-well microtiter plastic plates at 37° C. for a day. Then cells were exposed to different concentrations of cucurbitacins at final volume of 100 μl/well. Five-fold serial dilution of compounds was carried out in the plate for five consecutive wells. After 24 h of incubation with chemicals, live cells were visualized using the MTT viability assay (Promega, Madison, Wis.). The absorbance was measured at 570 nm. Negative (without cells) and positive (without test chemicals) controls were also incubated with each plate. […] At least three reproducible experiments were performed per compound with three replicate wells per concentration.
Cells were challenged with cu-curbitacins at various concentrations for a day and then live cells quantified with MTT dye. This period of time measures exclusively compounds cytotoxicity, while longer incubation time may lead to interference from metabolites.
A general note: Tetrazolium dyes change colour on reduction, which living cells bring about.

The test system of series [7] is HepG2 cells. The series can be described thus: cells. From the text:
Experimental conditions were standardized on silybin. […]
The ratio of IC50-to-EC50 (hereafter T/A) is also indicated in this table, which gives the margin between toxic and cytoprotective concentrations.

Consider `Nc1ccccc1` [Aniline (28), aniline, reference compound], for which the “CHIMeOH (b)” value in series [1] (standard compounds, isochratic and gradient elution of standard mixture) is on record as 29.94 ± 0.05.

As usually defined, the EC50 is the concentration that produces a half-maximal response. By IC50 is commonly meant the concentration at which inhibition is half-maximal. On to `CCOC1=CC2C(=CCC3C2(C)C(=O)CC2(C)C(C(C)(O)C(=O)C=CC(C)(C)OC(C)=O)C(O)CC32C)C(C)(C)C1=O` (stereo not drawn) [E-Et], for which, in series [2], the CHIACN1 is listed as 82.76. Besides, the CHIACN2 in series [2] is 93.73. Besides, in series [1], the CHIMeOH amounted to 74.25. Moreover, the EC50 turned out to be 270 nM in series [3] and 5600 nM in series [4]. The IC50 was 3.5 µM in series [5]; 5.1 µM in series [6] (Table 4, 24 h incubation, MTT); 5.1 ± 0.9 µM in series [6] (Table 5).

For the molecule `CC(=O)OC(C)(C)C=CC(=O)C(C)(O)C1C(O)CC2(C)C3CC=C4C(C=C(OC(C)C)C(=O)C4(C)C)C3(C)C(=O)CC12C` (stereo not drawn) [E-iPr], in series [2], the CHIACN1 is given as 86.84. Also, in series [2], the CHIACN2 was 100.04. Moreover, the CHIMeOH in series [1] was found to be 76.30. Moreover, the EC50 came to 320 nM in series [3] and 2130 nM in series [4]. Further, the “cytoprotection on HepG2 cells” value is on record as −0.60 ± 1.11 in series [7] (at 6.25% of IC50, against CCl4); −7.81 ± 0.68 in series [7] (at 12.5% of IC50, against CCl4); −7.00 ± 0.17 in series [7] (at 20% of IC50, against CCl4); −32.99 ± 1.70 in series [7] (at 50% of IC50, against CCl4). Also, the IC50 is 2.5 µM in series [5]; 4.3 µM in series [6] (Table 4, 24 h incubation, MTT); 4.3 ± 0.5 µM in series [6] (Table 5).

Regarding `CCCOC1=CC2C(=CCC3C2(C)C(=O)CC2(C)C(C(C)(O)C(=O)C=CC(C)(C)OC(C)=O)C(O)CC32C)C(C)(C)C1=O` (stereo not drawn) [E-nPr], in series [2], the CHIACN1 stood at 88.34 and the CHIACN2 was 102.37. The CHIMeOH in series [1] is 77.66. Besides, in series [3], the EC50 turned out to be 340 nM. The same molecule had an EC50 in series [4] of 2280 nM. Moreover, the IC50 in series [5] was found to be 2.8 µM.

`CC(C)(O)/C=C/C(=O)[C@](C)(O)[C@H]1[C@H](O)C[C@@]2(C)[C@@H]3CC=C4[C@@H](C=C(O)C(=O)C4(C)C)[C@]3(C)C(=O)C[C@]12C` [I, cucurbitacin I]: the CHIACN1 in series [2] came to 63.27. For the same molecule, the CHIACN2 in series [2] is listed as 63.53. This molecule returned a CHIMeOH in series [1] of 63.86. The EC50 in series [3] is 20 nM; in series [4], 360 nM; in series [7] (read-out: EC50 cytoprotection, Table 7, HepG2 against CCl4 toxicity, estimated) it was 3.2 µM. Besides, the “cytoprotection on HepG2 cells” value came to 4.55 ± 0.64 in series [7] (at 6.25% of IC50, against CCl4); 17.50 ± 1.32 in series [7] (at 12.5% of IC50, against CCl4); 50.09 ± 1.02 in series [7] (at 20% of IC50, against CCl4); 54.75 ± 0.29 in series [7] (at 50% of IC50, against CCl4). For the same molecule, the IC50 was determined as 3.6 µM in series [5]; 15.8 µM in series [6] (Table 4, 24 h incubation, MTT); 15.8 ± 6.7 µM in series [6] (Table 5); 15.8 µM in series [6] (Table 7).

Consider `CC(C)(O)/C=C/C(=O)[C@](C)(O)C1[C@H](O)C[C@@]2(C)C3CC=C4C(C=C(O[C@@H]5O[C@H](CO)[C@@H](O)[C@H](O)[C@H]5O)C(=O)C4(C)C)[C@]3(C)C(=O)C[C@]12C` (stereo partly drawn) [I-Gluc, cucurbitacin I glucoside], for which the CHIACN1 in series [2] is 46.48. In addition, the CHIACN2 in series [2] was found to be 37.50. In addition, the CHIMeOH in series [1] is 56.41. The EC50 in series [3] is 4150 nM. Besides, the “Experiment 1 anti-proliferation activity” value in series [4] (measured at 100 μM) is on record as “˜20%^a^”. The IC50 in series [5] came to 256 µM; in series [6] (Table 4, 24 h incubation, MTT), 390 ± 10 µM; in series [6] (Table 5), 390 ± 10 µM.

On to `CCCOC1=CC2C(=CCC3C2(C)C(=O)CC2(C)C(C(C)(O)C(=O)C=CC(C)(C)O)C(O)CC32C)C(C)(C)C1=O` (stereo not drawn) [I-nPr], for which the CHIACN1 in series [2] was 75.92. Moreover, the CHIACN2 in series [2] was 83.13. This molecule also registered a CHIMeOH in series [1] of 72.88. In series [3], the EC50 was 330 nM. Also, the “Experiment 1 anti-proliferation activity” value in series [4] (measured at 2-6 μM) was “˜18%^b^”. Also, the IC50 in series [5] came out at 2.5 µM; in series [6] (Table 4, 24 h incubation, MTT), 5 µM; in series [6] (Table 5), 5 ± 0.5 µM.
